Data on one compound can be found in patent publication EP3386957B1, “PROCESS FOR THE PURIFICATION OF 10-DEACETYL BACCATIN III” (RotaChrom Technológiai és Szolgálató Zártkörüen Müködö …, priority 2015, dated 2017).

The series in a line: Selectivity of CPC solvent systems for contaminants of 10-DAB III (contaminants identified by HPLC relative retention time). The note with it: CPC solvent mixture MTBE/acetone/water; Table 3. The series is classed as physicochemical. As to the method:
The HPLC methods used for the analysis: • 1. Isocratic method • Column: Dr Maisch ReproSil-Pur C18-AQ (150x4.0 mm, 3 um) • Column thermostat: 35 °C • Flow rate: 0.75 ml/min • Eluent: 28% acetonitrile, 72% water, 0.1% acetic acid • Detection wavelength: 230 +/- 5 nm • Injected volume: 10 ul • 2. Gradient method • Colum: Phenomenex Kinetex C18 (100x3.0 mm, 2.6 um) • Column thermostat: 35 °C • Flow rate: 0.7 ml/min • Eluent A: water + 0.1% acetic acid Eluent B: acetonitrile Gradient program: 0 min 20% B, 5 min: 30% B, 11 min 40% B, 13 min 40% B, 14 min 20% B, 18 min 20% B • Detection wavelength: 230 +/- 5 nm • Injected volume: 5 ul
Table 3: the selectivity matrix of the individual methods according to the invention

In the case of `CC(=O)O[C@@]12CO[C@@H]1C[C@H](O)[C@@]1(CO)C(=O)[C@H](O)C3=C(C)[C@@H](O)C[C@@](O)([C@@H](OC(=O)c4ccccc4)[C@H]21)C3(C)C` [RRT=0.48, 19-OH-10-deacetylbaccatin III], the selectivity entry is “+++ (high selectivity)”.
